These results are taken from patent US7994182B2 (Pecsi Tudomanyegyetem, priority 2003, dated 2011).

The subject of data set [1] is WRL-68 human liver cell line. In words: Protecting effect against hydrogen peroxide induced cell death in WRL-68 cells (MTT cell survival). Format: cell-based. Particulars: 3 hours; for IC50: read-out: IC50: concentration where the hydrogen peroxide induced cell death was inhibited by 50%; for Emax: read-out: Maximum protection. The method, then: The protecting effect of 4-quinazolinone derivatives against cell death caused by hydrogen peroxide in WRL-68 human liver cell line.
The human WRL-68 cell line was obtained from American Type Culture Collection (Rockville, Md.). The one layer thick cell lines were cultured in Dulbecco's modified. Eagle medium containing 1% antibiotic-antimycotic solution and 10% fetal calf serum under humid 37° C. air containing 5% CO2. The cells were separated every three days.
The cells were transformed to a 96-well plate with 2.5×10^4 cells/well initial concentration and were cultured overnight in humid 37° C. air containing 5% CO2. The following day 0.3 mM hydrogen peroxide was added to the medium either by itself or in the presence of one of the protecting agents. Three hours later the medium was removed and 0.5% water-soluble mitochondria stain, 3-(4,5-dimethylthiazol-2-yl)-2;5-diphenyl-tetrazolium bromide (MTT^+) was added to the cells. […] The optical density was determined at 550 nm by Anthos Labtech 2010 ELISA Reader (Wien, Austria). In every experiment at least 6 parallel samples were treated and the experiments were repeated three times. Table 1 presents the concentrations (given in μM) where the hydrogen peroxide induced cell death was inhibited by 50%.

For data set [2], the target named is T1, poly(ADP-ribose) polymerase enzyme isolated from rat liver (Rattus norvegicus, UniProt P27008).
T1 construct: The poly(ADP-ribose) polymerase enzyme was isolated from rat liver as described earlier; from tissue; host or cells: rat liver
T1 sequence (P27008 whole entry): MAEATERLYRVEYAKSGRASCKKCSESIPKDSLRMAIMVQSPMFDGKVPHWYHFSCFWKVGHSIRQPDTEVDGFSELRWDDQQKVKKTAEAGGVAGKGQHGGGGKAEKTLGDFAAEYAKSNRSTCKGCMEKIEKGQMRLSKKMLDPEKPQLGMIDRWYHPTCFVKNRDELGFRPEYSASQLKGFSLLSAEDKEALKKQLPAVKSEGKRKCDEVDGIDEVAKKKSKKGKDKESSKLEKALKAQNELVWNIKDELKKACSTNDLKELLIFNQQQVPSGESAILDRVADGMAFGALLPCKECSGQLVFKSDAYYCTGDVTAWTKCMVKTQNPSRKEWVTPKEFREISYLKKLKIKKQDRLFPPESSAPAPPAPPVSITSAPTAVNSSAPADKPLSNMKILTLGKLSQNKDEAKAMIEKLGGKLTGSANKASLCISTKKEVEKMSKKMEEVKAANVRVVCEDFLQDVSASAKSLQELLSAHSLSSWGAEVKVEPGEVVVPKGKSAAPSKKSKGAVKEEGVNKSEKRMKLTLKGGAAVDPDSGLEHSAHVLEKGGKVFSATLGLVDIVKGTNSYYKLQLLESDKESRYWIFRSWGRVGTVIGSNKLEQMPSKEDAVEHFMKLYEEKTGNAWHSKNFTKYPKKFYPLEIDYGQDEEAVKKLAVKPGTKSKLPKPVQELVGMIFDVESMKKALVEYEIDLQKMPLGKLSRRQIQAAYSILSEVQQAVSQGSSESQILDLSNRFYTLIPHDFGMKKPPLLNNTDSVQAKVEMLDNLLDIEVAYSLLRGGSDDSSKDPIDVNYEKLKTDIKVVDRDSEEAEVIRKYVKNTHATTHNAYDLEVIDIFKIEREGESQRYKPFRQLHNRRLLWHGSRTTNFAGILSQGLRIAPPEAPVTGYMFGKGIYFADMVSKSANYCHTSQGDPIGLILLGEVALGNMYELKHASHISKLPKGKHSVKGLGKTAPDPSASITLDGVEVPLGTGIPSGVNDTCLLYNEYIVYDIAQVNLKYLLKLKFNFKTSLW
Nature of the data set: In vitro inhibitory effect on PARP enzyme ([3H]-NAD+ incorporation). Format: biochemical. Particulars: 1 mM [3H]-NAD+, 15 minutes incubation. The method, then:
The In Vitro Inhibitory Effect of 4-quinazolinone Derivatives on PARP Enzyme
The poly(ADP-ribose) polymerase enzyme was isolated from rat liver as described earlier. The putative inhibitory effect of 4-quinazolinone derivatives was examined in this experiment. The activity of the PARP enzyme was determined in 130 μl solution containing 100 mM Tris-HCl buffer (pH 8.0), 10 mM MgCl2, 10% glycerol, 1.5 mM DTT, 1 mM [Adenin-2,8-^3H]-NAD^+ (4,500 cpm/nmol), 10 μg activated DNA and 10 μg histone. With or without the presence of 4-quinazolinone derivatives, the samples were incubated for 15 minutes, then the reactions were brought to stop by the addition of 8% trichloroacetic acid. After the addition of 0.5 mg albumin the samples were allowed to precipitate for 20 minutes on ice, then the insoluble substances were filtered on a glass filter, collected and washed five times with 5% perchloric acid. The protein-bound radioactivity was measured by LS-200 Beckman scintillation counter, the data is presented in μM in Table 2.

Where [3] appears, read: Homo sapiens, WRL68, 0.3 mM hydrogen peroxide.

Read-outs that look alike come from different tables or passages of the source.

Regarding `Cc1nc2ccccc2c(=O)[nH]1` [Compound 2, 2-methylquinazolin-4(3H)one, reference compound], in data set [1] (setting [3]), the IC50 came to 4 µM and the Emax was 54%.

With `O=c1[nH]c(S)nc2ccccc12` [Compound 3, 2-mercaptoquinazolin-4(3H)one, reference compound], in data set [1] (setting [3]), the IC50 was found to be 70 µM and the Emax was found to be 52%.

With `Cc1nc2ccccc2c(=O)n1CC1=CC(C)(C)N([O])C1(C)C` [Compound 8, 3-[(1-Oxyl-2,2,5,5-tetramethyl-2,5-dihydro-1H-pyrrol-3-yl)methyl]-2-methylqunazolin-4(3H)-one], in data set [1] (0.3 mM hydrogen peroxide), the Maximum protection was 0% and the IC50 is more than 100 µM.

For the compound `Cc1nc2ccccc2c(=O)n1CC1=CC(C)(C)NC1(C)C` [Compound 9, 3-[(2,2,5,5-Tetramethyl-2,5-dihydro-1H-pyrrol-3-yl)methyl]-2-methylquinazolin-4(3H)-one], in data set [1] (setting [3]), the IC50 is 10 µM and the Emax stood at 15%.

As for `CC1(C)C=C(CSc2nc3ccccc3c(=O)[nH]2)C(C)(C)N1O` [Compound 12, 2-{[(1-Oxyl-2,2,5,5-tetramethyl-2,5-dihydro-1H-pyrrol-3-yl)methyl]thio}quinazolin-4(3H)-one], the melting point (as a rule, the temperature of the solid-liquid transition) fell in the range of 138 to 140 °C.

Regarding `CC1(C)C=C(CSc2nc3ccccc3c(=O)[nH]2)C(C)(C)N1` [Compound 13, 2-{[(2,2,5,5-Tetramethyl-2,5-dihydro-1H-pyrrol-3-yl)methyl]thio}quinazolin-4(3H)-one], the melting point is 150 to 151 °C.

As for `CC1(C)C=C(CSC2=Nc3ccccc3C(=O)C2)CC(C)(C)N1` [Compound 15, 2-{[(2,2,6,6-Tetramethyl-1,2,3,6-tetrahydropyridin-4-yl)methyl]thio}quinolin-4(3H)-one], in data set [1] (setting [3]), the IC50 was determined as 10 µM and the Emax stood at 61%.

In turn, `CN(C)CCSc1nc2ccccc2c(=O)[nH]1` [Compound 17a] showed an IC50 in data set [2] of 2 µM. In data set [1] (setting [3]), the IC50 amounted to 0.15 µM and the Emax turned out to be 68%.

For the compound `CN(C)CCCSc1nc2ccccc2c(=O)[nH]1` [Compound 17b, 2-{[3(Dimethylamino)propyl]thio}quinazolin-4(3H)-one], the IC50 in data set [2] amounted to 6 µM. For the same compound, in data set [1] (setting [3]), the IC50 amounted to 4.8 µM and the Emax is 65%.

Regarding `O=c1[nH]c(SCCN2CCCCC2)nc2ccccc12` [Compound 17c, 2-[(2-Piperidin-1-ylethyl)thio]quinazolin-4(3H)-one], the IC50 in data set [2] came to 2.6 µM. Moreover, in data set [1] (setting [3]), the IC50 was found to be 0.8 µM and the Emax was 62%.

Take `CC1(C)CCCC(C)(C)N1CCSc1nc2ccccc2c(=O)[nH]1` [Compound 17d, 2-{[2-(2,2,6,6-Tetramethylpiperidin-1-yl)ethyl]thio}quinazolin-4(3H)-one]: the IC50 in data set [2] turned out to be 1.6 µM. Also, in data set [1] (setting [3]), the IC50 is 0.1 µM and the Emax is 69.6%.

In the case of `CC1(C)C=C(c2nc3ccccc3c(=O)[nH]2)C(C)(C)N1O` [Compound 21, 2-(1-Oxyl-2,2,5,5-tetramethyl-2,5-dihydro-1H-pyrrol-3-yl)quinazolin-4(3H)-one], in data set [1] (setting [3]), the IC50 was more than 100 µM and the Emax came out at 0%.

For the compound `CC1(C)C=C(c2nc3ccccc3c(=O)[nH]2)C(C)(C)N1` [Compound 22, 2-(2,2,5,5-Tetramethyl-2,5 dihydro-1H-pyrrol-3-yl)quinazolin-4(3H)-one], the melting point fell in the range of 254 to 256 °C.

For the compound `CC1(C)C=C(c2nc3ccccc3c(=O)[nH]2)CC(C)(C)N1O` [Compound 23, 2-(1-Oxyl-2,2,6,6-tetramethyl-1,2,3,6-tetrahydropyridin-4-yl)quinazolin-4(3H)-one], in data set [1] (setting [3]), the IC50 is 13 µM and the Emax turned out to be 50%.

As to `CC1(C)C=C(c2nc3ccccc3c(=O)[nH]2)CC(C)(C)N1` [Compound 24, 2-(2,2,6,6-Tetramethyl-1,2,3,6-tetrahydropyridin-4-yl)quinazolin-4(3H)-one], in data set [1] (setting [3]), the IC50 came out at 12 µM and the Emax was 50%.
